Laboratory results reported in patent US20180099931A1 (AbbVie S.à.r.l., priority 2016, published 2018).
Where two headings read alike, the source gives them in different places.

Molecular target: T1, F508delCFTR (Homo sapiens, UniProt P13569, DEL508-508)
T1 construct: expressed in transfected cells; host or cells: CFBE41o- human lung-derived epithelial cells (CFBE4lo-F508delCFTR-HRP), doxycycline-inducible
Test: Cell Surface Expression-Horse Radish Peroxidase (CSE-HRP) Assay;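 on Maximum % activity (with co-corrector): co-corrector and positive control are both the same reference corrector at 2 µM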;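 on Maximum % activity (without co-corrector): percent of the 2 µM on-plate positive control corrector response above DMSO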
Type: cell-based
Conditions: for Emax / Maximum % activity (with co-corrector): maximum at any tested concentration, normalized to on-plate positive control; for Emax: read-out: Maximum % activity (without co-corrector)

[1] = test compound without co-corrector
[2] = test compound without co-corrector, read-out: EC50 (without co-corrector)
[3] = with co-corrector (2 μM of 3-[(2R,4R)-4-({[1-(2,2-difluoro-1,3-benzodioxol-5-yl)cyclopropyl]carbonyl}amino)-7-methoxy-3,4-dihydro-2H-chromen-2-yl]benzoic acid), read-out: EC50 (with co-corrector)
[4] = CSE-HRP, test compound without co-corrector, read-out: EC50 (without co-corrector)
[5] = CSE-HRP, with co-corrector (2 μM of 3-[(2R,4R)-4-({[1-(2,2-difluoro-1,3-benzodioxol-5-yl)cyclopropyl]carbonyl}amino)-7-methoxy-3,4-dihydro-2H-chromen-2-yl]benzoic acid), read-out: EC50 (with co-corrector)
[6] = CSE-HRP, with co-corrector (2 μM)
[7] = with co-corrector (2 μM of 3-[(2R,4R)-4-({[1-(2,2-difluoro-1,3-benzodioxol-5-yl)cyclopropyl]carbonyl}amino)-7-methoxy-3,4-dihydro-2H-chromen-2-yl]benzoic acid)

T1 sequence (P13569 with tags, fused parts or gaps DEL508-508): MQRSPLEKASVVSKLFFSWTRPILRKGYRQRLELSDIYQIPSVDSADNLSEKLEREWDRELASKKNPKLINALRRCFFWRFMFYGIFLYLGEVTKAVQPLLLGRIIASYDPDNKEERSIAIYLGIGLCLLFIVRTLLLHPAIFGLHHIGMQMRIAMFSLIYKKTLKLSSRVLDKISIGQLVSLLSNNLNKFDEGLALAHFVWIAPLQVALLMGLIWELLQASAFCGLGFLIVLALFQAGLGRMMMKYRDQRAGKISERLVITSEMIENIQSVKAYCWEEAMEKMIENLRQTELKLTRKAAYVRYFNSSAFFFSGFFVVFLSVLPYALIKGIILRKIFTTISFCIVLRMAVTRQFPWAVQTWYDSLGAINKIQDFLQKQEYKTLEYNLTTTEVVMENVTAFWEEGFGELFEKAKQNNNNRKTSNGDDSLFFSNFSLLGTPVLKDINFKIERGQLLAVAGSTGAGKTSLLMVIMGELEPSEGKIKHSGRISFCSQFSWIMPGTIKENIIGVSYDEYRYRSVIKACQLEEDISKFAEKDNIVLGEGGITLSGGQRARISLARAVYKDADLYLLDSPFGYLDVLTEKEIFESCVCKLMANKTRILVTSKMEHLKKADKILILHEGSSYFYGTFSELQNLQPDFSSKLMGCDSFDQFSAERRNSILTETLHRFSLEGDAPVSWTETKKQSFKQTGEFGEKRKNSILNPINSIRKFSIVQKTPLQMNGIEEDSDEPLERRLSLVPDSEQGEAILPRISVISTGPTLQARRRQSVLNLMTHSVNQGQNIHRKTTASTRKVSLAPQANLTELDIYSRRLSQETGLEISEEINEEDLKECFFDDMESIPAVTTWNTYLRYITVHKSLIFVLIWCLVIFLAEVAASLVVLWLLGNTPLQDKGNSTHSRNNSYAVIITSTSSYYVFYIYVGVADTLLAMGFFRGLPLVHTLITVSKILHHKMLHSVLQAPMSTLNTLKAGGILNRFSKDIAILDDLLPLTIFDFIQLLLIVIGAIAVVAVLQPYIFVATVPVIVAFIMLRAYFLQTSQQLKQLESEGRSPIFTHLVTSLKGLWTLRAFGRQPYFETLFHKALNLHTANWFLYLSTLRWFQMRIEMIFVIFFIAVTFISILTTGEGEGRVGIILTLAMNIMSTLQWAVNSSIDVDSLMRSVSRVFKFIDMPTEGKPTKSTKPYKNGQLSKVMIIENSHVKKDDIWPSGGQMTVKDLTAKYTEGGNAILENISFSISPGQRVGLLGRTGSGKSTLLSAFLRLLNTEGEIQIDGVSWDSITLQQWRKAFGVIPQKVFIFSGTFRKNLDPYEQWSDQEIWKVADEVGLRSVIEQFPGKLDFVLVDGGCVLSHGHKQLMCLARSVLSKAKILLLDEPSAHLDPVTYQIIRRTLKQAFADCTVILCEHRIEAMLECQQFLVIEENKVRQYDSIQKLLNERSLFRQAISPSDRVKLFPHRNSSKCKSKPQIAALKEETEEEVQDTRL

Row | Compound | Emax [1] | EC50 [2] | EC50 [3] | Maximum % activity (with co-corrector) (with co-corrector (2 μM)) | EC50 [4] | EC50 [5] | Maximum % activity (with co-corrector) [6] | Emax (CSE-HRP, without co-corrector) | Emax (without co-corrector) | Maximum % activity (with co-corrector) [7]
1 | COc1cc2c(cc1CN[C@H]1[C@H](C(C)(C)C)[C@@H](C(=O)O)N(C(=O)OC(C)C)[C@H]1c1ccccc1C)CCC2 [Example 90, (2S,3S,4S,5S)-3-tert-butyl-4-{[(6-methoxy-2,3-dihydro-1H-inden-5-yl)methyl]amino}-5-(2-methylphenyl)-1-{[(propan-2-yl)oxy]carbonyl}pyrrolidine-2-carboxylic acid] |  | 1000 to 10000 nM | 1000 to 10000 nM | +++ (≥350) |  |  |  |  | > 200% | 
2 | COc1ccc(C(C)(C)C)cc1CN[C@H]1[C@H](C(C)(C)C)[C@@H](C(=O)O)N(C(=O)CC2(O)CCC2)[C@H]1c1ccccc1 [Example I-148] |  | 1000 to 10000 nM | 1000 to 10000 nM | +++ (≥350) |  |  |  |  | > 200% | 
3 | COc1ccc(C(C)(C)C)cc1CN[C@H]1[C@H](C(C)(C)C)[C@@H](C(=O)O)N(C(=O)C2Cc3ccccc3O2)[C@H]1c1cccnc1OC (single isomer, unassigned) [Example I-165] |  | < 1000 nM | < 1000 nM | +++ (≥350) |  |  |  |  | 100 to 200% | 
4 | COc1ncc(-c2ccccc2)cc1CN[C@H]1[C@H](C(C)(C)C)[C@@H](C(=O)O)N(C(=O)C2CCCCC2)[C@H]1c1ccccc1 [Example 25, (2S,3S,4S,5S)-3-tert-butyl-1-(cyclohexanecarbonyl)-4-{[(2-methoxy-5-phenylpyridin-3-yl)methyl]amino}-5-phenylpyrrolidine-2-carboxylic acid] |  | < 1000 nM | < 1000 nM | +++ (≥350) |  |  |  |  | 100 to 200% | 

Now from value to compound:

Row | Emax [1] | EC50 [2] | EC50 [3] | Maximum % activity (with co-corrector) (with co-corrector (2 μM)) | EC50 [4] | EC50 [5] | Maximum % activity (with co-corrector) [6] | Emax (CSE-HRP, without co-corrector) | Emax (without co-corrector) | Maximum % activity (with co-corrector) [7] | Compound
5 | 100 to 200% | < 1000 nM | < 1000 nM | +++ (≥350) |  |  |  |  |  |  | COc1ccc(C(F)(F)F)cc1CN[C@H]1[C@H](C(C)(C)C)[C@@H](C(=O)O)N(C(=O)C2CCC(C)(C)C2)[C@H]1c1ccccc1 (stereo partly shown) [III-197]
6 |  |  |  |  | 1000 to 10000 nM | 1000 to 10000 nM | +++ (≥350) | 100 to 200% |  |  | COc1ccc(C(C)(C)C)cc1CN[C@H]1[C@H](C(C)(C)C)[C@@H](C(=O)O)N(C(=O)CC2CCOc3ccccc32)[C@H]1c1ccccc1 (stereo partly shown) [II-213]
7 | < 100% | 1000 to 10000 nM | 1000 to 10000 nM |  |  |  |  |  |  | ++ (≥150 and <350) | COCCOc1ccc(C(F)(F)F)cc1CN[C@@H]1[C@@H](C(C)(C)C)[C@H](C(=O)O)N(C(=O)C2CCCCC2)[C@@H]1c1ccccc1 (racemic) [III-64]
8 | > 200% | 1000 to 10000 nM | < 1000 nM | +++ (≥350) |  |  |  |  |  |  | COc1ccc(C(C)(C)C)cc1CN[C@H]1[C@H](C(C)(C)C)[C@@H](C(=O)O)N(C(=O)CC2CCCCC2)[C@H]1c1ccccc1 [III-167]
9 | < 100% | 1000 to 10000 nM | 1000 to 10000 nM |  |  |  |  |  |  | +++ (≥350) | CC(C)(C)[C@@H]1[C@@H](Nc2cc(C(F)(F)F)ccn2)[C@@H](c2ccccc2)N(C(=O)C2CCCCC2)[C@H]1C(=O)O (racemic) [III-4]
10 |  |  |  |  | < 1000 nM | < 1000 nM | +++ (≥350) | > 200% |  |  | COc1ccc(C(C)(C)C)cc1CN[C@H]1[C@H](C(C)(C)C)[C@@H](C(=O)O)N(C(=O)c2cnn(-c3ccccc3C)c2C)[C@H]1c1ccccc1 [II-228]
11 | > 200% | 1000 to 10000 nM | 1000 to 10000 nM |  |  |  |  |  |  | +++ (≥350) | COc1ccc(C(C)(C)C)cc1CN[C@H]1[C@H](C(C)(C)C)[C@@H](C(=O)O)N(C(=O)C2CC(F)C2)[C@H]1c1ccccc1 (stereo partly shown) [II-335]
12 |  |  |  |  | 1000 to 10000 nM | 1000 to 10000 nM | +++ (≥350) | > 200% |  |  | COc1cc(C(F)(F)F)ccc1CN[C@H]1[C@H](C(C)(C)C)[C@@H](C(=O)O)N(C(=O)OC(C)C)[C@H]1c1ccccc1OC [II-134]
13 | 100 to 200% | < 1000 nM | < 1000 nM | +++ (≥350) |  |  |  |  |  |  | COc1ccc(C(F)(F)F)cc1CN[C@H]1[C@H](C(C)(C)C)[C@@H](C(=O)O)N(C(=O)C2CC(C)CC(C)C2)[C@H]1c1ccccc1 (stereo partly shown) [III-196]
